Laboratory results as given in PubChem BioAssay (NCI).
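The compound was tested at five concentrations on cells cultured in 96-well plates, with a 48-hour exposure period. Definition used: TGI = concentration required for complete inhibition of growth.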

How the values were obtained:
Experiment in all cases: NCI tumour cell line growth inhibition, 48 h
UO-31 renal = system: UO-31 renal
RXF 393 renal = system: RXF 393 renal
SF-268 CNS = system: SF-268 CNS
SNB-19 CNS = system: SNB-19 CNS
KM12 colon = system: KM12 colon
SK-OV-3 ovarian = system: SK-OV-3 ovarian
A498 renal = system: A498 renal
SF-295 CNS = system: SF-295 CNS
NCI-H522 lung = system: NCI-H522 lung
MOLT-4 leukemia = system: MOLT-4 leukemia
SN12C renal = system: SN12C renal
IGROV1 ovarian = system: IGROV1 ovarian
U251 CNS = system: U251 CNS
CCRF-CEM leukemia = system: CCRF-CEM leukemia
M14 melanoma = system: M14 melanoma
OVCAR-8 ovarian = system: OVCAR-8 ovarian
NCI-H23 lung = system: NCI-H23 lung
PC-3 prostate = system: PC-3 prostate
MDA-MB-435 = system: MDA-MB-435

| SMILES | TGI (UO-31 renal) | TGI (RXF 393 renal) | TGI (SF-268 CNS) | TGI (SNB-19 CNS) | TGI (KM12 colon) | TGI (SK-OV-3 ovarian) | TGI (A498 renal) | TGI (SF-295 CNS) | TGI (NCI-H522 lung) | TGI (MOLT-4 leukemia) | TGI (SN12C renal) | TGI (IGROV1 ovarian) | TGI (U251 CNS) | TGI (CCRF-CEM leukemia) | TGI (M14 melanoma) | TGI (OVCAR-8 ovarian) | TGI (NCI-H23 lung) | TGI (PC-3 prostate) | TGI (MDA-MB-435) |
| --- | --- | --- | --- | --- | --- | --- | --- | --- | --- | --- | --- | --- | --- | --- | --- | --- | --- | --- | --- |
| C[N+]1(C)C[C@@H](O)C[C@@H]1C(=O)[O-] | > 100 µM | > 100 µM | > 100 µM | > 100 µM | > 100 µM | > 100 µM | > 100 µM | > 100 µM | > 100 µM | > 100 µM | > 100 µM | > 100 µM | > 100 µM | > 100 µM | > 100 µM | > 100 µM | > 100 µM | – | – |
| CCOC(=O)C1=C(c2ccccc2)N(C(C)=O)Cc2ccccc21 | > 100 µM | 68.2 µM | 64.8 µM | > 100 µM | 30.3 µM | > 100 µM | – | 37.8 µM | 51.7 µM | 34.8 µM | 77.1 µM | > 100 µM | 36.8 µM | 78.7 µM | 35 µM | > 100 µM | 34.5 µM | – | – |
| COC1=CC(=O)C2C(C1=O)C(c1ccc(Cl)cc1)[C@@H]2C (stereo not given in full) | 63.6 µM | 79.1 µM | 92.7 µM | 80.3 µM | > 100 µM | > 100 µM | > 100 µM | > 100 µM | 29.8 µM | 81.7 µM | – | > 100 µM | 62.9 µM | 93.2 µM | 71.7 µM | 67.4 µM | > 100 µM | – | – |
| Nc1nc2ncn(CC(O)COC(=O)c3ccccc3)c2c(=O)[nH]1 (stereo not given) | > 100 µM | > 100 µM | > 100 µM | – | > 100 µM | > 100 µM | > 100 µM | > 100 µM | > 100 µM | – | > 100 µM | > 100 µM | > 100 µM | > 100 µM | > 100 µM | > 100 µM | > 100 µM | – | – |
| COC(=O)C1(O)c2ccccc2N=C2C1CCN2C (stereo not given) | > 100 µM | > 100 µM | > 100 µM | > 100 µM | > 100 µM | > 100 µM | > 100 µM | > 100 µM | > 100 µM | > 100 µM | > 100 µM | > 100 µM | > 100 µM | > 100 µM | > 100 µM | > 100 µM | > 100 µM | – | – |
| O=C(O)COc1ccc(C(=O)/C(SS/C(C(=O)c2ccc(OCC(=O)O)c(Cl)c2Cl)=C2\C=C(c3ccccc3Cl)SS2)=C2/C=C(c3ccccc3Cl)SS2)c(Cl)c1Cl | 68.2 µM | – | > 88.3 µM | > 100 µM | > 71.4 µM | > 100 µM | 88.7 µM | > 100 µM | 11.3 µM | 53.6 µM | > 100 µM | 63.2 µM | 36.5 µM | 33.5 µM | > 68 µM | > 100 µM | 60.2 µM | – | – |
| O=S(=O)(Oc1ccc2ccccc2c1-c1c(OS(=O)(=O)C(F)(F)F)ccc2ccccc12)C(F)(F)F | > 100 µM | > 100 µM | > 100 µM | > 100 µM | > 100 µM | > 100 µM | > 100 µM | > 100 µM | > 100 µM | > 100 µM | – | > 100 µM | > 100 µM | > 100 µM | > 100 µM | > 100 µM | > 100 µM | > 100 µM | > 100 µM |
